These results are taken from ChEMBL document CHEMBL1764984 (J Med Chem, 2011).

≈ marks a conversion by molar mass, not a printed value.

For one series, the system named is Blood. The series is described as follows: Inhibition of TNFalpha-induced IL1-beta production in human whole blood after 2 to 5 hrs by ELISA. In kind it is functional, tissue-based. For orientation: An ELISA detects its analyte on a solid surface through an enzyme-linked reagent.
A short description of series [1]: Permeability of the compound from basolateral to apical side of human Caco2 cells at 10 uM after 21 days. The class given is ADME, cell-based. The conditions noted are these: Caco-2, read-out: permeability. (In general: Caco-2 cells form a polarised layer with tight junctions and transporters.)
The subject of series [2] is Rattus norvegicus. In words: Inhibition of LPS-induced TNFalpha production in rat serum at 3 mg/kg, po administered 30 mins before LPS challenge measured after […] by ELISA. In kind it is functional.
Series [3] is described as follows: Permeability of the compound from apical to basolateral side of human Caco2 cells at 10 uM after 21 days. As to conditions: Caco-2, read-out: permeability. The class given is ADME, cell-based.
Series [4] can be described thus: Aqueous solubility of the compound in phosphate buffer at pH 6.5. In kind it is physicochemical.
Series [5] has as its target T1, Mitogen-activated protein kinase 14 (Homo sapiens, UniProt Q16539). The series is described as follows: Inhibition of human recombinant p38alpha assessed as incorporation of 33P from gamma-[33P]ATP into myelin basic protein after 30 mins by scintillation counting.
The test system of series [6] is Rattus norvegicus. The series is described as follows: Inhibition of LPS-induced IL-6 production in po dosed rat serum administered 30 mins before LPS challenge measured after […] by ELISA. In kind it is functional, organism-based.
Series [7] in a line: Oral bioavailability in cynomolgus monkey at 10 mg/kg. As to conditions: in vivo. In kind it is ADME, organism-based, Macaca fascicularis.
Series [8] concerns Rattus norvegicus. The series is described as follows: Analgesic activity in po dosed rat inflammatory yeast hyperalgesia model assessed as increase in tolerance to pressure. As to conditions: po. In kind it is functional, organism-based.
Series [9] addresses Serine/threonine-protein kinase NLK (Homo sapiens, UniProt Q9UBE8). The series is described as follows: Inhibition of NLK.
The nature of series [10]: Clearance in cynomolgus monkey at 10 mg/kg, iv. The conditions noted are these: in vivo. The class given is ADME, organism-based, Macaca fascicularis. Also noted: dose 10 mg/kg, route intravenous.
Series [11] concerns the target Serine/threonine-protein kinase 36 (Homo sapiens, UniProt Q9NRP7). In words: Inhibition of STK36.
Series [12] concerns the target Epithelial discoidin domain-containing receptor 1 (Homo sapiens, UniProt Q08345). In words: Inhibition of DDR1.
The next series has as its system THP-1. In words: Inhibition of LPS-induced TNFalpha production in human THP1 cells after 2 hrs by ELISA. The class given is functional, cell-based. As to conditions: THP-1, 2 h.
Series [13] in a line: Tmax in cynomolgus monkey at 10 mg/kg, po. In kind it is ADME, organism-based, Macaca fascicularis. Also noted: dose 10 mg/kg, route oral. The conditions noted are these: in vivo.
Series [14] has as its target Casein kinase I isoform epsilon (Homo sapiens, UniProt P49674). The series is described as follows: Inhibition of CSNK1epsilon.
Series [15] concerns the target Atypical kinase COQ8A, mitochondrial (Homo sapiens, UniProt Q8NI60). The series is described as follows: Inhibition of ADCK3.
For series [16], the system named is Rattus norvegicus. The series is described as follows: Inhibition of TNF-alpha-induced IL-6 production in po dosed rat plasma administered 30 mins before TNFalpha challenge measured after 2 hrs by ELISA. The class given is functional, organism-based.
The nature of series [17]: Plasma protein binding in cynomolgus monkey by untrafiltration method. As to conditions: read-out: PPB (converted). The class given is ADME, cell-free, Macaca fascicularis.
The target of series [18] is Mitogen-activated protein kinase 10 (Homo sapiens, UniProt P53779). In words: Inhibition of JNK3.
Mitogen-activated protein kinase 10, sequence (P53779 whole entry): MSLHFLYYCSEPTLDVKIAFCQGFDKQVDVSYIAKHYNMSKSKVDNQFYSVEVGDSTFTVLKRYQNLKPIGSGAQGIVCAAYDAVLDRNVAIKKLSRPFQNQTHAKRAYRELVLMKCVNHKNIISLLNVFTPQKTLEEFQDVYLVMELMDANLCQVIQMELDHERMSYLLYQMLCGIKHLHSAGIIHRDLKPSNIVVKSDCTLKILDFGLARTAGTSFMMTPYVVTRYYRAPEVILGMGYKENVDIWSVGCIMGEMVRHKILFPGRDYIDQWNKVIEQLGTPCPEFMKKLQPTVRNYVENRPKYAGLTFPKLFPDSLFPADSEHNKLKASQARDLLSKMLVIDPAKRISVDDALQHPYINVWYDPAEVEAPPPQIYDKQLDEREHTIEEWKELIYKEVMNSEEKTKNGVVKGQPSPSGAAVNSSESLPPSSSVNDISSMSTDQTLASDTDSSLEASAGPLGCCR
Series [19] is described as follows: AUC (infinity) in cynomolgus monkey at 10 mg/kg, po. In kind it is ADME, organism-based, Macaca fascicularis. Also noted: time infinity, dose 10 mg/kg, route oral. The conditions noted are these: plasma.
Series [20] relates to Rattus norvegicus. In words: Inhibition of LPS-induced TNFalpha production in po dosed rat serum administered 30 mins before LPS challenge measured after […] by ELISA. In kind it is functional, organism-based.
Series [21] addresses Mitogen-activated protein kinase 11 (Homo sapiens, UniProt Q15759). The series is described as follows: Inhibition of P38beta.
Another series deals with Cytochrome P450 3A4 (Homo sapiens, UniProt P08684). The series is described as follows: Inhibition of human CYP3A4. The class given is ADME.
Series [22] concerns the target Ribosomal protein S6 kinase alpha-4 (Homo sapiens, UniProt O75676). The series is described as follows: Inhibition of RSK4.
The nature of series [23]: Volume of distribution at steady state in cynomolgus monkey at 10 mg/kg, iv. In kind it is ADME, organism-based, Macaca fascicularis. Also noted: dose 10 mg/kg, route intravenous. As to conditions: in vivo, read-out: Vdss.
For a further series, the target named is Cytochrome P450 2D6 (Homo sapiens, UniProt P10635). The series is described as follows: Inhibition of human CYP2D6. The class given is ADME.
Another series addresses Cytochrome P450 2C19 (Homo sapiens, UniProt P33261). In words: Inhibition of human CYP2C19. The class given is ADME.
The next series has as its target Cytochrome P450 2C9 (Homo sapiens, UniProt P11712). In words: Inhibition of human CYP2C9. In kind it is ADME.
Series [24] is described as follows: Cmax in cynomolgus monkey at 10 mg/kg, po. In kind it is ADME, organism-based, Macaca fascicularis. On the set-up: dose 10 mg/kg, route oral. As to conditions: in vivo.
Series [25] can be described thus: Half life in cynomolgus monkey at 10 mg/kg, po. In kind it is ADME, organism-based, Macaca fascicularis. The conditions noted are these: in vivo. On the set-up: dose 10 mg/kg, route oral.
Another series concerns the target Cytochrome P450 1A2 (Homo sapiens, UniProt P05177). In words: Inhibition of human CYP1A2. The class given is ADME.
The target in series [26] is T1, Mitogen-activated protein kinase 14. In words: Inhibition of p38alpha.
In series [27] the target is Tyrosine-protein kinase Lck (Homo sapiens, UniProt P06239). The series is described as follows: Inhibition of LCK.
Tyrosine-protein kinase Lck, sequence (P06239 whole entry): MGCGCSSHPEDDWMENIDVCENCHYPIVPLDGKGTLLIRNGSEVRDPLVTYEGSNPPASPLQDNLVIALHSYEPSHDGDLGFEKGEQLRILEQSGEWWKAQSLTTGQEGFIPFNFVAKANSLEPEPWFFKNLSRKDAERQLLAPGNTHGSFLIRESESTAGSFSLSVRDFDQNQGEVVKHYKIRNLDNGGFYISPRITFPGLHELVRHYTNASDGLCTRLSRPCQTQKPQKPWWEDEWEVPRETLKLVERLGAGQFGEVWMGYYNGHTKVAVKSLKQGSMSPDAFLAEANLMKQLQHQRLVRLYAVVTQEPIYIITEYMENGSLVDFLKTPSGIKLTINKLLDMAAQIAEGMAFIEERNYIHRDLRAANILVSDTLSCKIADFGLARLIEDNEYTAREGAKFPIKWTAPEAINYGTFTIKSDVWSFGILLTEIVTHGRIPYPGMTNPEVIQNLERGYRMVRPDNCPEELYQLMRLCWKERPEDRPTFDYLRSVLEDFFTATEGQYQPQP

T1 sequence (Q16539 whole entry): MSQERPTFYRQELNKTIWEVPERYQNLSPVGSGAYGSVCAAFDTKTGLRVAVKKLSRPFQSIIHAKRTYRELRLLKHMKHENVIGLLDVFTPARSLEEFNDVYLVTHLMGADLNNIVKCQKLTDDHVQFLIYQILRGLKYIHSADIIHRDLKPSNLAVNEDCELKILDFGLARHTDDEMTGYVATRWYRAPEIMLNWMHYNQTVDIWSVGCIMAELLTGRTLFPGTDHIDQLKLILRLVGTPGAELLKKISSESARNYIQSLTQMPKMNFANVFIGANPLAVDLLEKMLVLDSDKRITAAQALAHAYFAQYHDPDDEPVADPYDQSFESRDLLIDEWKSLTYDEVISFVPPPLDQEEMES
Mitogen-activated protein kinase 11, sequence (Q15759 whole entry): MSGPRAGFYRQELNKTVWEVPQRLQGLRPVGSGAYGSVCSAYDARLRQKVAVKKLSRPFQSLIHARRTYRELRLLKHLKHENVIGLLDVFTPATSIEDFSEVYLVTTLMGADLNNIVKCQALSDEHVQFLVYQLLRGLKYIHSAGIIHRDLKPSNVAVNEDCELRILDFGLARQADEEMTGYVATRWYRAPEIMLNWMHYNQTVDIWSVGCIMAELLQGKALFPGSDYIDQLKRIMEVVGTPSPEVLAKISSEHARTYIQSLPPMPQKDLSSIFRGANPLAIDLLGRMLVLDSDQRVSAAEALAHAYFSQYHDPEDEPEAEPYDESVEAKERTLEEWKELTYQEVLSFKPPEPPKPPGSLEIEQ
Serine/threonine-protein kinase 36, sequence (Q9NRP7 whole entry, the tested form may be a part): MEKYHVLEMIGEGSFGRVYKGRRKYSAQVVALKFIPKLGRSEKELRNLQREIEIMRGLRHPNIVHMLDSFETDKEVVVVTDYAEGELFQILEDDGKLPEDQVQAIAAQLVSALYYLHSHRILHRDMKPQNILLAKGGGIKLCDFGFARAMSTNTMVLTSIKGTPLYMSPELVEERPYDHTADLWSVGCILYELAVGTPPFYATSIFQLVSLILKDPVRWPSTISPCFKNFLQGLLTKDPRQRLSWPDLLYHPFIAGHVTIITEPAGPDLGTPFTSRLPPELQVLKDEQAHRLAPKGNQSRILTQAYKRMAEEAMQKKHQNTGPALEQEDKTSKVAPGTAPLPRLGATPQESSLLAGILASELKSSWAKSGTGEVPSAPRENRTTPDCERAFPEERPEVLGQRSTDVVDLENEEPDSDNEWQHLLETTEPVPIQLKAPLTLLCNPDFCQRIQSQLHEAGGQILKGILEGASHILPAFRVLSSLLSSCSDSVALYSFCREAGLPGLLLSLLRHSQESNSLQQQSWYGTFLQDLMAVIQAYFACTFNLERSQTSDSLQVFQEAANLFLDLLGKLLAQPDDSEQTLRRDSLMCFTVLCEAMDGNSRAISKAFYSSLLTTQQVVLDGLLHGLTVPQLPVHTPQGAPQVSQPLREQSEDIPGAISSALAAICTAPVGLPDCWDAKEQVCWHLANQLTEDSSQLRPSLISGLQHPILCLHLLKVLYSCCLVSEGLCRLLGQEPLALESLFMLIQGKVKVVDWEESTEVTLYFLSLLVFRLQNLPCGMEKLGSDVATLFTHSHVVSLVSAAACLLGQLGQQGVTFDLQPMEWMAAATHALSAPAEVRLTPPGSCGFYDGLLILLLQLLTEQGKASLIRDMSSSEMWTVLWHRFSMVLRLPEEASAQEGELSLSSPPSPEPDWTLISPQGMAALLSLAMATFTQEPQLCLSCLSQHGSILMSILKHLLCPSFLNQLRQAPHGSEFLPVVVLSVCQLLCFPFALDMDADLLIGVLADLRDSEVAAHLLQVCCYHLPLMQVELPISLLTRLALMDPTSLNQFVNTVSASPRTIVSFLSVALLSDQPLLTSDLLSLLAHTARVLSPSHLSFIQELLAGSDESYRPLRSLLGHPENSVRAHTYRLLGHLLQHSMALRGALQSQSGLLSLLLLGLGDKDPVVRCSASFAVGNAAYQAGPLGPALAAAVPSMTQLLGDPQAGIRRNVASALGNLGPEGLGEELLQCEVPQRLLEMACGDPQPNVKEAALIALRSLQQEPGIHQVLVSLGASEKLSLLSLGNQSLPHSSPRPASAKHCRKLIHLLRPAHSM
Cytochrome P450 2C19, sequence (P33261 whole entry): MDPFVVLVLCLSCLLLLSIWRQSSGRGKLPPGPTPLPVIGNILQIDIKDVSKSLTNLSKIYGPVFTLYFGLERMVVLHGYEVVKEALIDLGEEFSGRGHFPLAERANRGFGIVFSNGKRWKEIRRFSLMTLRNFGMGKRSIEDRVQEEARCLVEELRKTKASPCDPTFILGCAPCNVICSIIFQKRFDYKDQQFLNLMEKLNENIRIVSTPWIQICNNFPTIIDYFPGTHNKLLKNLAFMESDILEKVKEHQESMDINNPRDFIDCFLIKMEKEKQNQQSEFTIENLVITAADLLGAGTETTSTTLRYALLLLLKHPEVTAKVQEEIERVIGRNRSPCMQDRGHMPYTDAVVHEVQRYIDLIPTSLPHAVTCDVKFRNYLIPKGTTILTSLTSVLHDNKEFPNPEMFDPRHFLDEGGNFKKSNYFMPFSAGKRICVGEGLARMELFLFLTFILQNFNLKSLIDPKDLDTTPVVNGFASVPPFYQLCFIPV
Ribosomal protein S6 kinase alpha-4, sequence (O75676 whole entry): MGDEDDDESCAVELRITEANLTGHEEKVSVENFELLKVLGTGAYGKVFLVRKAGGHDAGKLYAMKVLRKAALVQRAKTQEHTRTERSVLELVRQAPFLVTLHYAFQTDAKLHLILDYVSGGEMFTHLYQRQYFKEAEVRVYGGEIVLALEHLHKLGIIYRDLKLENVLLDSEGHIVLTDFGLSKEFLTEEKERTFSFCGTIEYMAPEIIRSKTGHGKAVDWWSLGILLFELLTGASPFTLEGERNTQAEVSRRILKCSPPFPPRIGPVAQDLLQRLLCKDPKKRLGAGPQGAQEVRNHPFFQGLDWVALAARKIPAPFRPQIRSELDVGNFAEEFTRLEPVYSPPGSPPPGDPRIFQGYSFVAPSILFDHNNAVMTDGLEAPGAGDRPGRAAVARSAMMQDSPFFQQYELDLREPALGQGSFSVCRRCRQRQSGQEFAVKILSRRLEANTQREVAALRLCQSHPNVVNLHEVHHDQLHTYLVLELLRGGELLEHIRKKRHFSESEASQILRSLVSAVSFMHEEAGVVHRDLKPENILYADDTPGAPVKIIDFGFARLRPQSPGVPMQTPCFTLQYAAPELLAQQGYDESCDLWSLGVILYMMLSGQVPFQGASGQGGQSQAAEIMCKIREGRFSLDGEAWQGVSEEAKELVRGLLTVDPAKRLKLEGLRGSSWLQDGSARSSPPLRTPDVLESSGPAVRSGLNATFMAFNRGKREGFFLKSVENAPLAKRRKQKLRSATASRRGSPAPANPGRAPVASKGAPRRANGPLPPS
Casein kinase I isoform epsilon, sequence (P49674 whole entry, canonical isoform): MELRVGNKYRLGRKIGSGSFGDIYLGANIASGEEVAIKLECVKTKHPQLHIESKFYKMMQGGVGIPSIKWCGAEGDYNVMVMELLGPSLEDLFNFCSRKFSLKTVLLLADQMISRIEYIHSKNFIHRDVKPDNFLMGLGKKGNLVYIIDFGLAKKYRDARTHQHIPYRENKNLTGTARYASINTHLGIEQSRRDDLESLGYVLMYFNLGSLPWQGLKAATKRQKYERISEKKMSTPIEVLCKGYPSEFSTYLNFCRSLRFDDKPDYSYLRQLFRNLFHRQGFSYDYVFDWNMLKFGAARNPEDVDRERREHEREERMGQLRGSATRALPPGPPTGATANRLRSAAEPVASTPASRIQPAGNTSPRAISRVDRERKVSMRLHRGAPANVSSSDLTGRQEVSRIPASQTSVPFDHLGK

A word on the IC50: it is the midpoint of a concentration-inhibition curve. The term inhibition in vivo denotes the percentage by which the read-out fell short of the control. One may read the solubility as the dissolved amount per volume that the medium holds. Molecule `C[C@H](CS(C)(=O)=O)Nc1ncc2cc(Oc3ccc(F)cc3F)c(=O)n(C)c2n1` displayed an IC50 with Blood of 50 nM. In series [1], the Papp B→A at 10 µM stood at 22.4 ×10⁻⁶ cm/s. Moreover, the inhibition in vivo at 3 mg/kg in the series on Rattus norvegicus [2] worked out at 88%. The Papp A→B at 10 µM in series [3] worked out at 13.5 ×10⁻⁶ cm/s. This molecule also came in with a solubility in [4] of 18 µg/mL (≈ 42.4 µM).

Consider `C[C@H](Cn1ncnn1)Nc1ncc2cc(Oc3ccc(F)cc3F)c(=O)n(C)c2n1`, for which, in the series with Blood, the IC50 worked out at 318 nM.

`Cn1c(=O)c(Oc2ccc(F)cc2F)cc2cnc(N[C@H]3CCOC3)nc21`: the results for the IC50 (in the series with Blood; in series [5]) were 373 nM and 31 nM, respectively.

Consider `O=c1c(Oc2ccc(F)cc2F)cc2cnc(NC3CCOCC3)nc2n1CCCO`, for which, in the series on Blood, the IC50 came to 14 nM.

In general, EC50 refers to the concentration giving half of the maximal effect. For orientation: ED50 means the midpoint of the dose-response relation. By bioavailability is commonly meant dose-corrected exposure relative to a reference, in per cent. One may read the Kd as the free concentration of one partner at which half of the binding sites on the other are occupied at equilibrium, for simple one-to-one binding. A word on the clearance: it is the rate of elimination divided by the concentration. By Tmax is commonly meant the time at which the peak concentration occurs. A word on the AUC(0-inf): it is total exposure, with the tail of the curve extrapolated. One may read the Cmax as the maximum level reached in the sampled fluid or tissue. The half-life is how long it takes for the measured level to halve. Consider `Cn1c(=O)c(Oc2ccc(F)cc2F)cc2cnc(NC3CCOCC3)nc21` [R-1487], for which the EC50 was found to be 10 nM in the series with Rattus norvegicus [6], 20 nM in the series on Rattus norvegicus [16] and 30 nM in the series on Rattus norvegicus [20]. Moreover, the ED50 was 0.4 mg/kg in the series on Rattus norvegicus [6] (po), 5.5 mg/kg with Rattus norvegicus [8], 0.4 mg/kg in the series with Rattus norvegicus [16] (po) and 0.8 mg/kg with Rattus norvegicus [20] (po). This molecule came in with a bioavailability in [7] of 51.6%. In addition, the IC50 in the series on Blood was 170 nM; in the series on THP-1 it was 47 nM; against Cytochrome P450 3A4, above 40000 nM; against Cytochrome P450 2D6, above 40000 nM; on Cytochrome P450 2C19 it was above 40000 nM; at Cytochrome P450 2C9, above 40000 nM. At Cytochrome P450 1A2, this molecule yielded an IC50 above 40000 nM. For the same molecule, the Kd in series [9] is 6 nM; in [11], 330 nM; in [12] it was 270 nM; in series [14] it was above 1000 nM; in series [15] it was 320 nM; in [18] it was 3 nM. Moreover, the Kd in series [21] turned out to be 29 nM; in series [22], 73 nM. For the same molecule, the clearance in series [10] is 3.05 mL/min/kg. Besides, the Papp B→A at 10 µM in series [1] is 23.7 ×10⁻⁶ cm/s. Besides, at 3 mg/kg the inhibition in vivo in the series on Rattus norvegicus [2] was 68%. Also, the Tmax in series [13] was 4.67 h. The fraction unbound in series [17] was 0.046. In series [19], this molecule showed an AUC(0-inf) of 29400 ng·h/mL. The Papp A→B at 10 µM in [3] came out at 33 ×10⁻⁶ cm/s. Also, the Vd in series [23] was found to be 2.73 L/kg. The amount in solution in series [4] (solubility) came to 6 µg/mL (≈ 15.4 µM). Moreover, the concentration in [24] peaked (Cmax) at 1560 ng/mL. In series [25], this molecule had a half-life of 22.5 h.

As to `Cn1c(=O)c(Oc2ccc(F)cc2F)cc2cnc(NC(C)(C)CO)nc21`, the IC50 in [5] worked out at 25 nM.

As to `O=C1Nc2nc(N[C@H]3CC[C@H](O)CC3)ncc2CN1c1ccccc1Cl`, the Kd in series [26] was 32 nM; in [27] it was above 20000 nM.

Turning to `Cn1c(=O)c(Oc2ccc(F)cc2F)cc2cnc(N[C@H]3CC[C@H](O)CC3)nc21`, the values for the IC50 (in the series on Blood; in series [5]) were 68 nM and 4 nM, respectively.

As for `O=c1[nH]c2nc(NC3CCOCC3)ncc2cc1Oc1ccc(F)cc1F`, the values for the half-inhibitory concentration (IC50) (in the series on Blood; in series [5]) were 84 nM and 18 nM, respectively.

Regarding `CCN(CC)CCOc1ccc(Nc2ncc3c(n2)N(C)C(=O)N(c2c(Cl)cccc2Cl)C3)cc1`, the Kd in [26] came to 10 nM; in series [27], 0.2 nM.

With `CS(=O)(=O)N1CCC(n2c(=O)c(Oc3ccc(F)cc3F)cc3cnc(NC4CCOCC4)nc32)CC1`, the IC50 in the series with Blood is 52 nM; in series [5], 1 nM.

In the case of `Cn1c(=O)c(Sc2ccccc2F)cc2cnc(NC3CCOCC3)nc21`, the IC50 stood at 731 nM in the series with Blood and 111 nM in series [5].

`C[C@@H](CS(C)(=O)=O)Nc1ncc2cc(Oc3ccc(F)cc3F)c(=O)n(C)c2n1` registered an IC50 in the series on Blood above 3000 nM.

Regarding `Cn1c(=O)c(Oc2ccc(F)cc2)cc2cnc(NC3CCOCC3)nc21`, in the series with Blood, the IC50 is 547 nM.

For `CS(=O)(=O)CCCn1c(=O)c(Oc2ccc(F)cc2F)cc2cnc(NC3CCOCC3)nc21`, the IC50 is 18 nM in the series with Blood and 6 nM in [5].

For `Cn1c(=O)c(Cc2ccccc2F)cc2cnc(NC3CCOCC3)nc21`, the IC50 in the series on Blood turned out to be 407 nM; in series [5], 42 nM.

With `Cn1c(=O)c(Oc2ccc(F)cc2F)cc2cnc(NC3CCS(=O)(=O)CC3)nc21`, the IC50 in the series on Blood was determined as 769 nM; in series [5] it was 15 nM.

For the molecule `CC(=O)N1CCC(Nc2ncc3cc(Oc4ccc(F)cc4F)c(=O)n(C)c3n2)CC1`, the results for the IC50 (with Blood; in series [5]) were 30 nM and 1 nM, respectively. Moreover, in series [1], the Papp B→A at 10 µM is 19.8 ×10⁻⁶ cm/s. The inhibition in vivo at 3 mg/kg in the series with Rattus norvegicus [2] was 76%. Further, the Papp A→B at 10 µM in series [3] turned out to be 17.9 ×10⁻⁶ cm/s. Besides, the concentration in solution in [4] (solubility) came to 14 µg/mL (≈ 32.6 µM).
